Data as given in patent US11447533B2, “Antimicrobial and anticancer peptides and conjugates and compositions, methods, articles and kits relating thereto” (George Mason Research Foundation, Inc., priority 2018, dated 2022).

Tests used:
[1] = test system: E. coli ML35p inner membrane; assay: Inner membrane disruption (β-galactosidase leakage, ONPG); assay type: cell-based, Escherichia coli
Description: Interactions with Bacterial Membranes. Interaction of the peptides with bacterial membranes in different phosphate buffers were evaluated using E. coli ML35p, constructed in our laboratory. At first, competent cells of E. coli ML35 were produced by conventional competent cell preparation method, then transformed with pBR322 plasmid. Transformed colonies were selected after growing on Luria-agar containing 50 μg/mL ampicillin. A single transformed colony was grown in presence of ampicillin first in Luria broth and then in MHBII and stored as 20% glycerol stock at −80° C. This frozen stock, on the day of the experiment, was thawed and grown in MHBII containing ampicillin up to OD600 nm=0.8-0.9, washed with PBS and then suspended in the respective buffer up to the required OD600 nm for use.
Membrane Disruptions. The outer and the inner membrane disruptions by the peptides were evaluated by incubating bacterial suspension with peptides and then measuring the activity of enzymes leaked out of the cells. 100 μL of 10× concentration of peptide in water was incubated with 900 μL bacterial suspension (OD600 nm˜0.1) in respective buffer for 3 hours at room temperature with gentle rotation. […]
The inner membrane disruption was tested by using the activity of β-galactosidase present in the […] of E. coli ML35p, which lacks lactose-permease. Peptides when disrupt the inner membrane enough to cause β-galactosidase to come out, the degree of disruption can be measured by the virtue of the kinetics of the enzyme and using a substrate called ortho-Nitrophenyl-β-galactoside (ONPG). β-galactosidase mediated hydrolyzed product of ONPG has an absorbance λmax=420 nm. Supernatant collected from the incubation of peptide with bacteria was added with ONPG solution in DPBS and incubated at 35° C. and continuous absorbance readings. The slope of the linear section of the absorbance curve (absorbance vs time), was used as a measure of membrane disruption and the % Disruption was calculated as: Equation 8: […]

[2] = test system: primary lung epithelium cells; assay: Cytotoxicity (Alamar blue); assay type: cell-based, human; settings: ~16 hours (overnight), reduced serum conditions
Description: FIGS. 11A-11B are graphs showing cytotoxicity against primary lung epithelium cells in serum-free condition. Cells were seeded in complete growth medium (Minimal essential medium supplemented with 10% fetal bovine serum) at near-confluence into a 96-well plate and allowed to settle for 24-hours. Media was then replaced to OptiMEM I reduced serum medium containing peptide or vehicle alone (DBPS) and cells were incubated overnight (16 hours). A resazurin based dye (Alamar blue) was added directly to media and conversion of resazurin to resorufin was evaluated following two hours. % Survival represents the proportion of viable cells in peptide treated cells relative to cells treated with vehicle alone. […] Each peptide was tested in triplicate.
FIG. 12 is a graph showing comparison of toxicities against Lung Primary Epithelial cells and Lung Cancerous Epithelial Cells, derived from H358 cell-line. […] Each peptide was tested in triplicate.
(§1) Cytotoxicity. Cells were seeded in complete growth medium (Minimal Essential Medium, MEMα, supplemented with 10% Fetal Bovine Serum) into a culture-treated 96-well plate at a density of 25000 cells per well. After 24 hours, culture media was aspirated and replaced with media containing the selected peptide. No-serum experiments were conducted in Opti-MEM I reduced serum media (ThermoFisher, 31985062) and 10% serum experiments were performed in complete growth medium. In all cases, DBPS was used as a vehicle only control and buffer to serially dilute the peptides. After exposure to the peptides or vehicle-alone for the defined period, Alamar blue dye (resazurin) was added directly to the media and allowed to incubate for two hours. Following incubation, A570/A600 measurements were made to calculate reduction of resazurin dye to resorufin. A ratio of reduction in treated versus untreated cells was calculated in order to determine overall cell viability. The human cells were always maintained in a 37° C. incubator under 5% CO2.

[3] = test system: H-358 lung epithelial cancer cells; assay: Cytotoxicity (Alamar blue); assay type: cell-based, human; settings: ~6 hours, 10% fetal bovine serum
Description: FIG. 12 is a graph showing comparison of toxicities against Lung Primary Epithelial cells and Lung Cancerous Epithelial Cells, derived from H358 cell-line. Non-linear regression analysis of six-hour cytotoxicity data was performed to identify the concentration to achieve 50% lethality (LD50) for each toxic peptide. Each peptide was tested in triplicate.
as §1, with “CO2. […]” for “CO2.”

Sequence | inner membrane disruption relative to HCMAB ([1]; 10 mM phosphate buffer) | inner membrane disruption relative to HCMAB ([1]; DPBS, HCMAB = 100%) | concentration decreasing resazurin reduction by 50% (LD50) [2] [µM] | concentration over which significant toxicity was observed [2] [µM] | LD50 [3] [µM]
KRFKKFFKKLK (SEQ ID NO: 2) [ATRA1, first 11 residues of NA-CATH] | highest | below 10% |  |  | 
RRWKRFFKRWKGGVIGVTFPF (SEQ ID NO: 50) [ATRA1-R3W2-HYD, ATRA1-R3W2 with hydrophobic tail of NA-CATH joined by -GG-] |  |  | ~50 | ~50 | ~24.5
RRWKRFFKRWK (SEQ ID NO: 15) [ATRA1-R3W2] |  | highest degree of inner membrane disruption |  |  | 
